Test results: US20230399339A1, “HETEROCYCLIC AMIDE DERIVATIVE, PREPARATION METHOD THEREFOR, AND APPLICATION THEREOF” (SHENZHEN ZHONGGE BIOLOGICAL TECHNOLOGY CO., LTD., priority 2021, published 2023)

Biological target: T1, EP4 receptor (Homo sapiens, UniProt P35408)
T1 construct: expressed in transfected cells; host or cells: Flpin-CHO-EP4 cells (Flp-In CHO host, Chinese hamster ovary)
Experiment: Antagonist activity against EP4 receptor by cAMP assay
Type: cell-based
Details: Flpin-CHO-EP4 cells, PGE2-stimulated cAMP; initial concentration 50 nM, dilution times 4
Procedure: (a) Antagonist Activity Against EP4 Receptor by cAMP Assay:
Experiment Methods: Inoculating Flpin-CHO-EP4 cells (8000 cells/well) into a 384-well plate (6007680-50, PE) with an assay buffer (1×HBSS+20 mM HEPES+0.1% BSA+500 μM IBMX). Preparing 8× compound working solution with the assay buffer. Adding 2.5 μL of the 8× compound working solution to each well in the cell plate according to the plate map and incubating at 37° C. for 10 min. Preparing 8×PGE2 (400 nM) with the assay buffer. Adding 2.5 μL of the 8×PGE2 per well in the cell plate and incubating at 37° C. for 30 min. Diluting the Eu-cAMP tracer (1/50) with a lysis buffer and adding 10 μL per well in the test plate. Diluting Ulight-anti-cAMP (1/150) with a lysis buffer and adding 10 μL per well in the test plate. Incubating at room temperature for 1 h. Reading wavelength signal values at 665 nm and 615 nm on the Envision 2105 plate reader.

T1 sequence (P35408 whole entry): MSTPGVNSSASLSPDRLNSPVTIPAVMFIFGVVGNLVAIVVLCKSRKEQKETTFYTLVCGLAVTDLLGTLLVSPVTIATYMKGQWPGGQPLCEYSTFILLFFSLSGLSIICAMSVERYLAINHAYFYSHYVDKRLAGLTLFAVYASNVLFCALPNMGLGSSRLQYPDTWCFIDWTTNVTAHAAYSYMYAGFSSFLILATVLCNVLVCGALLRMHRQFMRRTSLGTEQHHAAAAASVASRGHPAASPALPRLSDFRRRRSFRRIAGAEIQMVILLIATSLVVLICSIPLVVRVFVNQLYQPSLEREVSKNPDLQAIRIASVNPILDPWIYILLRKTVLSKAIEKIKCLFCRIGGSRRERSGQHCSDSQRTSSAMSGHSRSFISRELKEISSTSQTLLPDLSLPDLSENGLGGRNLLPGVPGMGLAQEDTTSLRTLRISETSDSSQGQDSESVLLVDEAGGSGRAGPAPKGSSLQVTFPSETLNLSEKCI

Row | IC50 | Compound
1 | 351 pM | Cc1sc2ccn(Cc3ccc(C(F)(F)F)cc3)c2c1C(=O)NC1(c2ccc(C(=O)O)cc2)CC1 [Control compound]
2 | 122 pM | Cc1sc2ccn(Cc3ccc(S(F)(F)(F)(F)F)cc3)c2c1C(=O)NC1(c2ccc(C(=O)O)cc2)CC1 [Example 1, 4-(1-{[2-methyl-4-(4-(pentafluorothio)benzyl)-4H-thieno[3,2-b]pyrrole-3-carbonyl]amino}-cyclopropyl)carboxylic acid]
